ChEMBL document CHEMBL1275354, “Anticonvulsant activity of 2,4(1H)-diarylimidazoles in mice and rats acute seizure models” (Bioorg Med Chem, 2010)
Active and inactive are the calls of the source.

How the values were obtained:
[1] = system: Mus musculus; assay: Neurotoxicity in ip dosed albino CF1 mouse assessed as minimum dose required to cause toxicity after 4 hrs by rotarod test; assay type: organism-based; conditions: in vivo
[2] = system: Mus musculus; assay: Anticonvulsant activity ip dosed albino CF1 mouse assessed as protection against maximal electroshock-induced seizures after 0.25 hrs; assay type: functional
[3] = system: Mus musculus; assay: Neurotoxicity in albino CF1 mouse assessed as minimal motor impairment at 30 mg/kg, ip after 0.5 hrs by rotarod test; assay type: toxicity, organism-based; design: dose 30 mg/kg, route intraperitoneal; conditions: in vivo
[4] = system: Rattus norvegicus; assay: Anticonvulsant activity in albino Sprague-Dawley rat assessed as protection against maximal electroshock-induced seizures at 30 mg/kg, po after 1 hr; assay type: functional, organism-based; design: dose 30 mg/kg
[5] = system: Mus musculus; assay: Neurotoxicity in albino CF1 mouse assessed as minimal motor impairment at 30 mg/kg, ip after 4 hrs by rotarod test; assay type: toxicity, organism-based; design: dose 30 mg/kg, route intraperitoneal; conditions: in vivo
[6] = system: Rattus norvegicus; assay: Anticonvulsant activity in albino Sprague-Dawley rat assessed as protection against maximal electroshock-induced seizures at 30 mg/kg, po after 2 hrs; assay type: functional, organism-based; design: dose 30 mg/kg
[7] = system: Mus musculus; assay: Neurotoxicity in albino CF1 mouse assessed as minimal motor impairment at 350 mg/kg, ip after 0.25 hrs by rotarod test; assay type: toxicity, organism-based; design: dose 350 mg/kg, route intraperitoneal; conditions: in vivo
[8] = system: Mus musculus; assay: Anticonvulsant activity in albino CF1 mouse assessed as protection against maximal electroshock-induced seizures at 300 mg/kg, ip after 4 hrs; assay type: functional, organism-based; design: dose 300 mg/kg
[9] = system: Mus musculus; assay: Anticonvulsant activity in albino CF1 mouse assessed as protection against subcutaneous metrazole-induced seizures at 250 mg/kg, ip after 0.25 hrs; assay type: functional, organism-based; design: dose 250 mg/kg
[10] = system: Mus musculus; assay: Anticonvulsant activity in albino CF1 mouse assessed as protection against subcutaneous metrazole-induced seizures at 300 mg/kg, ip after 0.5 hrs; assay type: functional, organism-based; design: dose 300 mg/kg
[11] = system: Mus musculus; assay: Neurotoxicity in albino CF1 mouse assessed as minimal motor impairment at 500 mg/kg, ip after 0.25 hrs by rotarod test; assay type: toxicity, organism-based; design: dose 500 mg/kg, route intraperitoneal; conditions: in vivo
[12] = system: Mus musculus; assay: Anticonvulsant activity ip dosed albino CF1 mouse assessed as protection against subcutaneous metrazole-induced seizures after 0.25 hrs; assay type: functional; conditions: albino CF1, 0.25 h
[13] = system: Mus musculus; assay: Neurotoxicity in albino CF1 mouse assessed as minimal motor impairment at 100 mg/kg, ip after 0.5 hrs by rotarod test; assay type: toxicity, organism-based; design: dose 100 mg/kg, route intraperitoneal; conditions: in vivo
[14] = system: Mus musculus; assay: Anticonvulsant activity in albino CF1 mouse assessed as protection against maximal electroshock-induced seizures at 30 mg/kg, ip after 4 hrs; assay type: functional, organism-based; design: dose 30 mg/kg
[15] = system: Mus musculus; assay: Anticonvulsant activity in albino CF1 mouse assessed as protection against subcutaneous metrazole-induced seizures at 125 mg/kg, ip after 0.25 hrs; assay type: functional, organism-based; design: dose 125 mg/kg
[16] = system: Rattus norvegicus; assay: Neurotoxicity in albino Sprague-Dawley rat assessed as minimal motor impairment at 30 mg/kg, po by rotarod test; assay type: toxicity, organism-based; design: dose 30 mg/kg, route oral; conditions: in vivo
[17] = system: Mus musculus; assay: Neurotoxicity in albino CF1 mouse assessed as minimal motor impairment at 30 to 300 mg/kg, po after 4 hrs by rotarod test; assay type: toxicity, organism-based; design: dose 30-300 mg/kg, route oral; conditions: in vivo
[18] = system: Mus musculus; assay: Neurotoxicity in albino CF1 mouse assessed as minimal motor impairment at 300 mg/kg, ip after 4 hrs by rotarod test; assay type: toxicity, organism-based; design: dose 300 mg/kg, route intraperitoneal; conditions: in vivo
[19] = system: Mus musculus; assay: Anticonvulsant activity in albino CF1 mouse assessed as protection against maximal electroshock-induced seizures at 300 mg/kg, ip after 0.5 hrs; assay type: functional, organism-based; design: dose 300 mg/kg
[20] = system: Mus musculus; assay: Neurotoxicity in ip dosed albino CF1 mouse assessed as minimum dose required to cause toxicity after 0.5 hrs by rotarod test; assay type: organism-based; conditions: in vivo
[21] = system: Mus musculus; assay: Anticonvulsant activity in albino CF1 mouse assessed as protection against subcutaneous metrazole-induced seizures at 30 mg/kg, ip after 4 hrs; assay type: functional, organism-based; design: dose 30 mg/kg
[22] = molecular target: Sodium channel protein type 2 subunit alpha (Homo sapiens, UniProt Q99250); assay: Inhibition of human NaV1.2 expressed in HEK cells at -60 mV holding potential by patch clamp recording technique; assay type: cell-based, HEK293
Sequence of Sodium channel protein type 2 subunit alpha (Q99250 whole entry): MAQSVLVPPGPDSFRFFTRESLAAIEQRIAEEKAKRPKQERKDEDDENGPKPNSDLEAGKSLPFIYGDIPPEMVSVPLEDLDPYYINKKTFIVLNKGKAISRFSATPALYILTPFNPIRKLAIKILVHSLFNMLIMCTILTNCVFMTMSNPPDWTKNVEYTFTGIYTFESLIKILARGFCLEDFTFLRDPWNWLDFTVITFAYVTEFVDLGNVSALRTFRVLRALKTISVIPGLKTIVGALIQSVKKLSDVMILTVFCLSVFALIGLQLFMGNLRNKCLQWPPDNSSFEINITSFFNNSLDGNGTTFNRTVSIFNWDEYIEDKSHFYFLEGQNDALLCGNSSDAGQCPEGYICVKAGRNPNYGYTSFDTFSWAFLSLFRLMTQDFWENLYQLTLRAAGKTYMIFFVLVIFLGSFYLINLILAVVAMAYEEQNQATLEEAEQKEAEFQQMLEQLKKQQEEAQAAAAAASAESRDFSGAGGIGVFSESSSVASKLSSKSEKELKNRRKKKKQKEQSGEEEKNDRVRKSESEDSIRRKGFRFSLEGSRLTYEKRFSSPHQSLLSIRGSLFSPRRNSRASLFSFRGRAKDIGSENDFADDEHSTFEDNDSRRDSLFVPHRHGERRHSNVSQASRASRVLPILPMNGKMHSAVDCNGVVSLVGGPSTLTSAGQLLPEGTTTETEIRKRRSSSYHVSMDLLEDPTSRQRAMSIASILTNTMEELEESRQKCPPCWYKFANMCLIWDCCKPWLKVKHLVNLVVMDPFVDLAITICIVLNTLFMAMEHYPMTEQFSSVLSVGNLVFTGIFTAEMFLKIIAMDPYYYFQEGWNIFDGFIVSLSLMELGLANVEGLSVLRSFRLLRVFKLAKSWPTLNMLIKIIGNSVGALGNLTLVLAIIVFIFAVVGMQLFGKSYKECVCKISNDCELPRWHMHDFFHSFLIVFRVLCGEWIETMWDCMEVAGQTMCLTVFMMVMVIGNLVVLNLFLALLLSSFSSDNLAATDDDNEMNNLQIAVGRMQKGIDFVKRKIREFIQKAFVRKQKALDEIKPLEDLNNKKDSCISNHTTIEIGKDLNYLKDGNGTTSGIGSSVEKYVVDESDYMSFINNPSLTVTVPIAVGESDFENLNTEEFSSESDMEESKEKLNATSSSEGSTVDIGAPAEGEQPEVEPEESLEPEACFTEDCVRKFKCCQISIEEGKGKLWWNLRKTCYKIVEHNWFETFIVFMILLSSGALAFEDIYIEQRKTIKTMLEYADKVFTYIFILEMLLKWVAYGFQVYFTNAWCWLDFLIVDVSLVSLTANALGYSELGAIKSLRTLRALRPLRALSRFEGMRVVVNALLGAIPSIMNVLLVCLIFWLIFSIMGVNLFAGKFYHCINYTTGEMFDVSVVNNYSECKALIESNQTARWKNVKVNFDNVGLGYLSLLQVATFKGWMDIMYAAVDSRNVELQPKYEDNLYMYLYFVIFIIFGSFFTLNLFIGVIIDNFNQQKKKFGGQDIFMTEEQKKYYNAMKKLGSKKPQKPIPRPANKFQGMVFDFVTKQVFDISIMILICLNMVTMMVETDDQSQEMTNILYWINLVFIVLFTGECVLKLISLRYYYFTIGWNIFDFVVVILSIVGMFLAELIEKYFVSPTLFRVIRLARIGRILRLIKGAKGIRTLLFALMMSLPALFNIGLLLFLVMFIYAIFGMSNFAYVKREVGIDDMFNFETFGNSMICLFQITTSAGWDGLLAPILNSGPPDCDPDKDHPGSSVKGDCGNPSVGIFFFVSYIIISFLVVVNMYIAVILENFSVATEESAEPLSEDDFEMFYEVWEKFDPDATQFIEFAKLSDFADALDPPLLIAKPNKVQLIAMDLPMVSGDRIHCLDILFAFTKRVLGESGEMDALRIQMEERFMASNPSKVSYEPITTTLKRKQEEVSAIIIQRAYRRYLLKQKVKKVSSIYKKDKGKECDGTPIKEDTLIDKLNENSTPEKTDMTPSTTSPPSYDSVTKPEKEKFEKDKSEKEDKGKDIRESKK

[23] = system: Rattus norvegicus; assay: Anticonvulsant activity in albino Sprague-Dawley rat assessed as protection against maximal electroshock-induced seizures at 30 mg/kg, po after 4 hrs; assay type: functional, organism-based; design: dose 30 mg/kg
[24] = system: Rattus norvegicus; assay: Anticonvulsant activity in albino Sprague-Dawley rat assessed as protection against maximal electroshock-induced seizures at 30 mg/kg, po after 0.25 hrs; assay type: functional, organism-based; design: dose 30 mg/kg
[25] = system: Mus musculus; assay: Neurotoxicity in ip dosed albino CF1 mouse assessed as minimal motor impairment after 0.25 hrs by rotarod test; assay type: toxicity, organism-based; conditions: in vivo
[26] = system: Mus musculus; assay: Anticonvulsant activity against maximal electroshock-induced seizures in ip dosed albino CF1 mouse assessed as minimum effective dose after 4 hrs; assay type: functional; conditions: read-out: MED
[27] = system: Rattus norvegicus; assay: Anticonvulsant activity in albino Sprague-Dawley rat assessed as protection against maximal electroshock-induced seizures at 30 mg/kg, po after 0.5 hrs; assay type: functional, organism-based; design: dose 30 mg/kg
[28] = system: Mus musculus; assay: Anticonvulsant activity in albino CF1 mouse assessed as protection against subcutaneous metrazole-induced seizures at 100 mg/kg, ip after 0.5 hrs; assay type: functional, organism-based; design: dose 100 mg/kg
[29] = system: Mus musculus; assay: Anticonvulsant activity in albino CF1 mouse assessed as protection against maximal electroshock-induced seizures at 30 mg/kg, ip after 0.5 hrs; assay type: functional, organism-based; design: dose 30 mg/kg
[30] = system: Mus musculus; assay: Anticonvulsant activity against maximal electroshock-induced seizures in ip dosed albino CF1 mouse assessed as minimum effective dose after 0.5 hrs; assay type: functional; conditions: read-out: MED
[31] = system: Mus musculus; assay: Anticonvulsant activity in albino CF1 mouse assessed as protection against subcutaneous metrazole-induced seizures at 100 mg/kg, ip after 4 hrs; assay type: functional, organism-based; design: dose 100 mg/kg
[32] = system: Mus musculus; assay: Neurotoxicity in albino CF1 mouse assessed as minimal motor impairment at 100 mg/kg, ip after 4 hrs by rotarod test; assay type: toxicity, organism-based; design: dose 100 mg/kg, route intraperitoneal; conditions: in vivo
[33] = system: Mus musculus; assay: Anticonvulsant activity in albino CF1 mouse assessed as protection against maximal electroshock-induced seizures at 100 mg/kg, ip after 0.5 hrs; assay type: functional, organism-based; design: dose 100 mg/kg
[34] = system: Mus musculus; assay: Anticonvulsant activity against subcutaneous metrazole-induced seizures in ip dosed albino CF1 mouse assessed as minimum effective dose after 4 hrs; assay type: functional; conditions: albino CF1, 4 h, read-out: MED
[35] = system: Mus musculus; assay: Anticonvulsant activity in albino CF1 mouse assessed as protection against subcutaneous metrazole-induced seizures at 30 mg/kg, ip after 0.5 hrs; assay type: functional, organism-based; design: dose 30 mg/kg
[36] = system: Mus musculus; assay: Anticonvulsant activity in albino CF1 mouse assessed as protection against maximal electroshock-induced seizures at 230 mg/kg, ip after 0.25 hrs; assay type: functional, organism-based; design: dose 230 mg/kg
[37] = system: Mus musculus; assay: Anticonvulsant activity against subcutaneous metrazole-induced seizures in ip dosed albino CF1 mouse assessed as minimum effective dose after 0.5 hrs; assay type: functional; conditions: albino CF1, 0.5 h, read-out: MED
[38] = system: Mus musculus; assay: Anticonvulsant activity in albino CF1 mouse assessed as protection against subcutaneous metrazole-induced seizures at 300 mg/kg, ip after 4 hrs; assay type: functional, organism-based; design: dose 300 mg/kg
[39] = species on record: Mus musculus; assay: Protective index, ratio of TD50 for albino CF1 mouse by rotarod test to ED50 for albino CF1 mouse by maximal electroshock seizures test; assay type: functional
[40] = system: Mus musculus; assay: Neurotoxicity in albino CF1 mouse assessed as minimal motor impairment at 30 to 300 mg/kg, ip after 0.5 hrs by rotarod test; conditions: in vivo
[41] = system: Mus musculus; assay: Anticonvulsant activity in albino CF1 mouse assessed as protection against maximal electroshock-induced seizures at 100 mg/kg, ip after 4 hrs; assay type: functional, organism-based; design: dose 100 mg/kg
[42] = system: Mus musculus; assay: Neurotoxicity in albino CF1 mouse assessed as minimal motor impairment at 300 mg/kg, ip after 0.5 hrs by rotarod test; assay type: toxicity, organism-based; design: dose 300 mg/kg, route intraperitoneal; conditions: in vivo
[43] = system: Mus musculus; assay: Neurotoxicity in albino CF1 mouse assessed as minimal motor impairment at 80 mg/kg, ip after 0.25 hrs by rotarod test; assay type: toxicity, organism-based; design: dose 80 mg/kg, route intraperitoneal; conditions: in vivo
[44] = system: Mus musculus; assay: Neurotoxicity in albino CF1 mouse assessed as minimal motor impairment at 200 mg/kg, ip after 0.25 hrs by rotarod test; assay type: toxicity, organism-based; design: dose 200 mg/kg, route intraperitoneal; conditions: in vivo

Clc1cccc(-c2c[nH]c(-c3ccccc3)n2)c1
>3.6: PI [39]
> 250 mg/kg: ED50 [12]
active: Activity [8] | Activity [19] | Activity [33] | Activity [36]
> 30 mg/kg: minimal effective dose [30]
> 300 mg/kg: MED [1] | minimal effective dose [34] | minimal effective dose [37]
inactive: Activity [4] | Activity [6] | Activity [9] | Activity [10] | Activity [14] | Activity [15] | Activity [21] | Activity [23] | Activity [24] | Activity [27] | Activity [28] | Activity [29] | Activity [31] | Activity [35] | Activity [38] | Activity [41]
137 mg/kg: ED50 [2]
17.9 µM: IC50 [22]
> 500 mg/kg: TD50 [25]
Non-toxic: Activity [3] | Activity [5] | Activity [7] | Activity [11] | Activity [13] | Activity [16] | Activity [17] | Activity [18] | Activity [32] | Activity [40]
100 mg/kg: MED [20] | minimal effective dose [26]

c1ccc(-c2c[nH]c(-c3ccccc3)n2)cc1
Toxic: Activity [42]
active: Activity [8] | Activity [19] | Activity [29] | Activity [33]
61.7 mg/kg: ED50 [2]
> 30 mg/kg: minimal effective dose [30]
100 mg/kg: MED [1] | MED [20] | minimal effective dose [26]
126.8 mg/kg: TD50 [25]
Non-toxic: Activity [3] | Activity [5] | Activity [43] | Activity [16] | Activity [44] | Activity [32] | Activity [40]
inactive: Activity [4] | Activity [6] | Activity [10] | Activity [14] | Activity [21] | Activity [23] | Activity [24] | Activity [27] | Activity [28] | Activity [31] | Activity [35] | Activity [38] | Activity [41]
> 300 mg/kg: minimal effective dose [34] | minimal effective dose [37]
161 mg/kg: ED50 [12]
